Structures are written as SMILES.

In one experiment the test system is FATP5. In words: Hepatic FATP5 expression (Northern blotting) in ZDF rats treated with LGD 1069. The experiment is classed as in vivo, rat. As to conditions: LGD 1069 in food 0.3-30 mg/kg/day for 50 days from age 7 weeks; Northern blot; FIG. 15. The method, then:
Male diabetic fatty rats (Zucker diabetic fatty rats (ZDF rats)) are kept in an animal house with free access to food and water, the nyctohemeral rhythm being observed.
The compound LGD 1069 is added to the food at a dose of 0.3, 1.0, 3.0, 10 or 30 mg/kg/day and administered for 50 days as from the age of 7 weeks. 4 animals are fed without the addition of LGD 1069: 2 ZDF and 2 ZLC. The animals are fasted and sacrificed the next day. The tissues are collected and frozen immediately in liquid nitrogen.
The hepatic RNAs are extracted by the conventional technique derived from Chomczynski and Sacchi. The expression is analysed by Northern blotting with hybridization using a radioactive cDNA probe specific for FATP5.

Another experiment concerns ZDF rats. The experiment in a line: Reversal of the diabetic phenotype in the ZDF rat by an insulin sensitizer. The experiment is classed as in vivo. As to conditions: LGD 1069 in food 0.3-30 mg/kg/day for 50 days from age 7 weeks. The method, then: Male diabetic fatty rats (Zucker diabetic fatty rats (ZDF rats)) are kept in an animal house with free access to food and water, the nyctohemeral rhythm being observed. The compound LGD 1069 is added to the food at a dose of 0.3, 1.0, 3.0, 10 or 30 mg/kg/day and administered for 50 days as from the age of 7 weeks. 4 animals are fed without the addition of LGD 1069: 2 ZDF and 2 ZLC. The animals are fasted and sacrificed the next day. The tissues are collected and frozen immediately in liquid nitrogen.

In the case of `C=C(c1ccc(C(=O)O)cc1)c1cc2c(cc1C)C(C)(C)CCC2(C)C` [RXR agonist, bexarotene], the “Negative regulation of the expression of FATP5 in the liver of ZDF rats compared with ZLC rats” value with FATP5 is listed as “counteracted”. Moreover, the development of diabetes entry with ZDF rats is listed as “reverses the development of diabetes”.
